Series [1] can be described thus: Single dose i.p. bolus liver levels / liver targeting in mice. Here is the method: At specified times post injection, mice were anesthetized and exsanguinated via cardiac puncture. The whole liver was removed, and snap-frozen in liquid nitrogen, and homogenized using a Polytron homogenizer PT 10/35 (Brinkmann Instruments, Westbury, N.Y.) in 3 volumes of 10% (v/v) perchloric acid (PCA). After a 5 min centrifugation at 2,500×g, 1 mL of supernatant was neutralized using 0.3 mL 3 M KOH/3 M KHCO3 and mixed thoroughly. Samples were then centrifuged for 5 minutes and resulting supernatants were treated with periodate in order to remove endogenous ribonucleotides which otherwise might interfere with araCTP detection. […] Resulting samples were analyzed by HPLC as described below.
To measure bone marrow araCTP, the bone marrow samples were flushed from the marrow cavities of femurs with 1.2 ml saline into pre-weighed Eppendorf tubes. After centrifugation for 20-30 seconds (Eppendorf microfuge, 14,000 rpm) and removal of the supernatant, 12 volumes of 3% PCA (v/v) were added to the bone marrow cell pellets. Samples were then vortexed until the pellet was well dissolved and centrifuged as above for 10 min. Ninety μL of extracted supernatant was neutralized to pH 7-8 using 30 μL 1 M KOH/1 M KHCO3 and again centrifuged. Resulting supernatants were periodate-treated as above.
Samples (50 μL) were injected onto the column in 70% 10 mM ammonium phosphate buffer and 30% 1 M ammonium phosphate buffer, both at pH 3.5 and containing 6% ethanol. […] A standard curve was prepared by adding known amounts of araCTP into PCA extracts from control liver or bone marrow prior to neutralizing, and preparing HPLC samples accordingly.
To obtain plasma, blood was transferred to heparinized micro-collection tubes and centrifuged in an Eppendorf microfuge at 14,000 rpm for 2 minutes. Resulting plasma was collected, placed on dry ice, and subsequently stored at −20° C. On the day of analysis, proteins were precipitated by adding 1 mL acetonitrile to 100 μL of plasma. After 10 min centrifugation (Eppendorf microfuge, 14,000 rpm), the supernatant was removed and dried in a Savant SpeedVac Plus SC110A. Samples were reconstituted with 110 μL of mobile phase buffer (20 mM KH2PO4, pH 4.5), sonicated for 5 min, and centrifuged for 30 seconds. […] AraC and prodrugs were detected by absorbance at 280 nm and quantitated using standard curves obtained with spiked plasma samples processed as above.
Results are expressed as mean±standard error of the mean. Data were analyzed by repeated measures ANOVA, followed by the Tukey HSD post-hoc test for comparisons at individual time points when appropriate. A p-value of less than 0.05 was considered statistically significant. Dotted lines in figures indicate LOQ (limit of quantitation) using the indicated HPLC method.
(§1) In those studies, liver, plasma and bone marrow samples were obtained at necropsy to evaluate liver targeting.
(§2) Results are expressed as mean±standard error of the mean. When appropriate, AUC was calculated from time zero to the last time-point of the study. Liver targeting indices (LTIs) were calculated by dividing the liver araCTP AUC by the AUC for plasma araC (plasma LTI) or by the AUC for bone marrow araCTP (bone marrow LTI) for each compound. For the continuous infusion studies, the steady state araCTP levels were divided by the steady state plasma araC levels.

A further series in a line: Solubility. Type of series: physicochemical. Here is the method:
With each of the three buffer systems, saturating solutions of Compound A and Compound B were prepared as follows. […] The resultant vials were sealed and equilibrated by tumbling at 25° C. for a minimum of 24 h. At the end of the incubation period, prodrug that was not in solution was removed from the samples by filtration through a 0.45 μm pore size nylon syringe filter. These diluted samples were assayed by the HPLC method of example E.

Series [2] can be described thus: Single IP injection liver targeting in rat. Format: in vivo. The note with it: 100 mg CE/kg single IP injection.
Series [3] in a line: Liver araCTP and liver targeting with continuous i.v. infusion in rats.
Excerpt: A saline filled blunt PE-50 tubing catheter (Intramedic, Becton Dickinson, Sparks, Md.) was inserted into the jugular vein, exteriorized between the scapulae and connected to a swivel-tethering constant infusion system (Lomir Biomedical, Inc., Malone, N.Y. and Harvard Apparatus, Inc., South Natick, Mass.). The tubing was filled with heparinized saline and sealed, and the animals allowed to recover for one to seven days.
After the various durations of infusion the animals were anesthetized by intra-catheter injections of the anesthetic mix described above. Blood samples were obtained via cardiac puncture using a 23-gauge needle attached to a heparin coated 3 cc syringe.
as §1, §2

The nature of a further series: Aqueous stability. Type of series: physicochemical. Conditions: 100 mM citrate, pH5.0, 37° C, 50 μM. As for the experimental part: Diluted solutions (50 μM) were incubated at 37° C. in a Fisher Scientific dry bath incubator (catalog # 11-718-2) with samples collected every 24 hours and stored at −80° C. Plasma samples (100 μL) were quenched with 1 mL of acetonitrile. […] Samples were resuspended in 120 μL of mobile phase buffer before HPLC injection.
Samples were analyzed on an HP1090 or HP1100 (Hewlett Packard) HPLC using a C-18 Alltech Econosphere column, 150 mm×4.6 mm (catalog # 70065), with a C-18 Alltech Econosphere guard column, 7.5 mm×4.6 mm (catalog # 96121). Samples were eluted with a methanol gradient: 0% for 5 minutes, then increasing to 10% at 10 minutes, 30% at 20 minutes, and 60% at 25 minutes. The column was allowed to equilibrate in 0% methanol for 10 minutes before the next injection. The flow rate was 1 mL/minute with a column temperature of 40° C. Prodrugs eluted around 19.5 minutes and were monitored by UV absorbance at 280 nm. For prodrugs in aqueous conditions, the same method was employed except the methanol gradient was as follows: 0% for 5 minutes, increasing to 10% at 10 minutes, and 30% at 20 minutes with prodrug eluting around 20 minutes.

The mark [4] stands for this setting: rats, 200 mg CE/kg/day continuous intravenous infusion.

Each structure is given as a SMILES string. Values after ≈ are worked out from the molar mass of the structure shown. Values joined by “and” are separate entries in the source; they are usually repeats but may differ in a detail not shown here. Identical values can stand only once.

For the compound `Nc1ccn([C@@H]2O[C@H](CO[P@@]3(=O)OCC[C@@H](c4ccncc4)O3)[C@@H](O)[C@@H]2O)c(=O)n1` [Compound A, 2(1H)-Pyrimidinone, 4-amino-1-[5-O-[(2R,4S)-2-oxido-4-(4-pyridinyl)-1,3,2-dioxaphosphorinan-2-yl]-β-D-arabinofuranosyl]], in series [1] (Mouse, 100 mg (cytarabine equivalents)/kg single IP injection), the “Liver araCTP Peak @ 1 hr” value is 96 nmol/g and 70 nmol/g. The “LTI (Liver/plasma)” value in series [1] (Mouse, 100 mg CE/kg single IP, liver araCTP AUC / plasma araC AUC) is 27 nmol/g/μM and 19.5 nmol/g/μM. For the same compound, the “reduction of peripheral exposure (liver targeting)” value in series [1] (administered intraperitoneally) is given as ~20 fold. Moreover, in series [1] (mice, bolus i.p. injection), the “liver araCTP levels relative to Compound B” value is ~2 fold and the “plasma araC levels relative to Compound B” value was ~2 fold. Also, in series [1] (mice, single i.p. bolus, 100 mg/kg CE), the “liver araCTP peak at 60 minutes post injection” value turned out to be 69.89 ± 6.37 nmol/g. Also, in “Solubility” (0.5 M Pi pH 8.0 buffer, 25° C), the solubility worked out at 2900 µg/mL (≈ 6.59 mM). Moreover, the solubility in the series “Solubility” (0.5 M citrate pH 4.0, 25° C) is 45800 µg/mL (≈ 104 mM). This compound came in with a solubility in “Solubility” (0.5 M citrate pH 7.0, 25° C) of 2600 µg/mL (≈ 5.9 mM). In addition, in series [2], the “LTI (Liver/plasma)” value is 19.2 nmol/g/μM and the “Liver araCTP Peak @ 1 hr” value turned out to be 267 nmol/g. In addition, the “reduction of peripheral exposure (liver targeting)” value in series [3] (administered by continuous intravenous infusion) is given as ~10 fold. Also, in series [3] (setting [4]), the “LTI @ 24 hrs (Liver/plasma)” value came to 7.5 nmol/g/μM, the “Liver araCTP 24 hr” value is 12.0 nmol/g, the “Liver araCTP @ 4 hr” value is recorded as 12.8 nmol/g and the “Plasma Prodrug steady state” value lay in the range of 40 to 50 µM. Also, the “Plasma araC steady state” value in series [3] (setting [4]) was ~1.6 µM. Also, the “steady state liver araCTP levels by 4 hours” value in series [3] (rats, continuous infusion 200 mg/kg/24 hours) came to 12.84 ± 1.50 nmol/g. Moreover, the “average liver araCTP for the remaining 44 hours” value in series [3] (rats, continuous infusion 200 mg/kg/24 hours, 48 hr) was 13 ± 1 nmol/g. For the same compound, the “t90 in aqueous solution” value in “Aqueous stability” is reported as 2 days.

The record behind these values is patent US7553826B2, “Cytarabine monophosphate prodrugs” (Metabasis Therapeutics, Inc., priority 2002, dated 2009).
